Source: ChEMBL document CHEMBL5316325, “Design and Synthesis of 3-Hydroxy-pyridin-4(1H)-ones-Ciprofloxacin Conjugates as Dual Antibacterial and Antibiofilm Agents against Pseudomonas aeruginosa” (J Med Chem, 2023)
Converted amounts (≈) assume the structure as drawn. The source made the active and inactive calls. The rule behind the calls is not given here.

Key:
Pseudomonas aeruginosa [1] = experiment: Antibiofilm activity against Pseudomonas aeruginosa PAO1 in ABTGC medium assessed as biofilm biomass at 1/4 times MIC incubated for 24 hrs by crystal violet staining based assay relative to control; type: functional
Pseudomonas aeruginosa [2] = experiment: Antibacterial activity against Pseudomonas aeruginosa ATCC 27853 in MHB medium assessed as bacterial growth inhibition by CLSI based broth microdilution method; type: functional
Pseudomonas aeruginosa [3] = experiment: Antibacterial activity against Pseudomonas aeruginosa PAO1 in MHB medium assessed as bacterial growth inhibition by CLSI based broth microdilution method; type: functional
Pseudomonas aeruginosa [4] = experiment: Antibacterial activity against Pseudomonas aeruginosa FB in MHB medium assessed as bacterial growth inhibition by CLSI based broth microdilution method; type: functional
Pseudomonas aeruginosa [5] = experiment: Antibacterial activity against Pseudomonas aeruginosa 1167 in MHB medium assessed as bacterial growth inhibition by CLSI based broth microdilution method; type: functional
Pseudomonas aeruginosa [6] = experiment: Antibacterial activity against Pseudomonas aeruginosa 1121 in MHB medium assessed as bacterial growth inhibition by CLSI based broth microdilution method; type: functional
Pseudomonas aeruginosa [7] = experiment: Antibacterial activity against Pseudomonas aeruginosa 1129 in MHB medium assessed as bacterial growth inhibition by CLSI based broth microdilution method; type: functional
Escherichia coli = experiment: Antibacterial activity against Escherichia coli ATCC 25922 in MHB medium assessed as bacterial growth inhibition by CLSI based broth microdilution method; type: functional
Klebsiella pneumoniae = experiment: Antibacterial activity against Klebsiella pneumoniae ATCC 700603 in MHB medium assessed as bacterial growth inhibition by CLSI based broth microdilution method; type: functional
Staphylococcus aureus [8] = experiment: Antibacterial activity against Staphylococcus aureus ATCC 25923 in MHB medium assessed as bacterial growth inhibition by CLSI based broth microdilution method; type: functional
Staphylococcus aureus [9] = experiment: Antibacterial activity against methicillin-resistant Staphylococcus aureus ATCC 515992 in MHB medium assessed as bacterial growth inhibition by CLSI based broth microdilution method; type: functional
Pseudomonas aeruginosa [10] = experiment: Antibacterial activity against Pseudomonas aeruginosa assessed as inhibition of virulence release at 4 ug/ml; type: functional, organism-based; conditions: dose 4.0 µg/ml
Pseudomonas aeruginosa [11] = experiment: Antibacterial activity against Pseudomonas aeruginosa PAO1 in ABTGC medium assessed as bacterial growth inhibition; type: functional
Pseudomonas aeruginosa [12] = experiment: Antibiofilm activity against Pseudomonas aeruginosa PAO1 in ABTGC medium assessed as biofilm biomass at 1/2 times MIC incubated for 24 hrs by crystal violet staining based assay relative to control; type: functional
Pseudomonas aeruginosa [13] = experiment: Antibiofilm activity against Pseudomonas aeruginosa PAO1 in ABTGC medium assessed as biofilm biomass at MIC incubated for 24 hrs by crystal violet staining based assay relative to control; type: functional
Pseudomonas aeruginosa [14] = experiment: Antibiofilm activity against Pseudomonas aeruginosa PAO1 assessed as decrease in rhamnolipid level at 15 uM by absorbance based assay; type: functional, organism-based
Pseudomonas aeruginosa [15] = experiment: Antibiofilm activity against Pseudomonas aeruginosa PAO1 assessed as decrease in pyocyanin level at 15 uM by absorbance based assay; type: functional, organism-based
Pseudomonas aeruginosa [16] = experiment: Antibiofilm activity against Pseudomonas aeruginosa PAO1 assessed as inhibition of bacterial motility at 15 uM incubated for 16 hrs relative to control; type: functional, organism-based
Pseudomonas aeruginosa [17] = experiment: Antibiofilm activity against Pseudomonas aeruginosa PAO1 assessed as biofilm eradication at 4 times MIC incubated for 24 hrs by crystal violet staining based assay relative to control; type: functional
Pseudomonas aeruginosa [18] = experiment: Antibiofilm activity against Pseudomonas aeruginosa PAO1 assessed as biofilm eradication at high concentration incubated for 36 hrs by crystal violet staining based assay; type: functional, organism-based
Pseudomonas aeruginosa [19] = experiment: Antibiofilm activity against Pseudomonas aeruginosa PAO1 in ABTGC medium assessed as biofilm biomass at MIC incubated for 24 hrs in presence of 10 uM Fe by crystal violet staining based assay relative to control; type: functional
HEK293 [20] = experiment: Cytotoxicity against HEK293 cells at 50 to 100 uM incubated for 48 hrs by MTT assay relative to control; type: toxicity, cell-based; conditions: human, hek293, 48 h, dose 50-100 µM
[21] = Toxicity in Caenorhabditis elegans assessed as survival rate at 50 to 100 uM measured after 48 hrs by bright field microscopy; conditions: dose 50-100 µM
Pseudomonas aeruginosa [22] = experiment: Antibacterial activity against Pseudomonas aeruginosa PAO1 assessed as log reduction in CFU/ml at 8 times MIC measured after 2 hrs by time killing analysis; type: functional
Pseudomonas aeruginosa [23] = experiment: Antibacterial activity against Pseudomonas aeruginosa PAO1 assessed as reduction in bacterial CFU count at 8 times MIC measured after 4 hrs by time killing analysis; type: functional, organism-based
Pseudomonas aeruginosa [24] = experiment: Antibacterial activity against Pseudomonas aeruginosa PAO1 assessed as reduction in bacterial viability at MIC measured after 8 hrs by time killing analysis; type: functional, organism-based
Pseudomonas aeruginosa [25] = experiment: Antibacterial activity against Pseudomonas aeruginosa PAO1 assessed as reduction in bacterial viability at 8 times MIC measured after 4 hrs by time killing analysis; type: functional, organism-based
Pseudomonas aeruginosa [26] = experiment: Antibiofilm activity against Pseudomonas aeruginosa PAO1 in ABTGC medium assessed as biofilm biomass at 1/2 times MIC incubated for 24 hrs in presence of 10 uM Fe by crystal violet staining based assay relative to control; type: functional
Pseudomonas aeruginosa [27] = experiment: Antibiofilm activity against Pseudomonas aeruginosa PAO1 in ABTGC medium assessed as biofilm biomass at 1/4 times MIC incubated for 24 hrs in presence of 10 uM Fe by crystal violet staining based assay relative to control; type: functional
Pseudomonas aeruginosa [28] = experiment: Antibiofilm activity against Pseudomonas aeruginosa PAO1 in ABTGC medium assessed as biofilm biomass at MIC incubated for 24 hrs in presence of 40 uM Fe by crystal violet staining based assay relative to control; type: functional
Pseudomonas aeruginosa [29] = experiment: Antibiofilm activity against Pseudomonas aeruginosa PAO1 in ABTGC medium assessed as biofilm biomass at 1/2 times MIC incubated for 24 hrs in presence of 40 uM Fe by crystal violet staining based assay relative to control; type: functional
Pseudomonas aeruginosa [30] = experiment: Antibiofilm activity against Pseudomonas aeruginosa PAO1 in ABTGC medium assessed as biofilm biomass at 1/4 times MIC incubated for 24 hrs in presence of 40 uM Fe by crystal violet staining based assay relative to control; type: functional
Pseudomonas aeruginosa [31] = experiment: Antibiofilm activity against Pseudomonas aeruginosa PAO1 assessed as decrease in rhamnolipid level by absorbance based assay; type: functional, organism-based; conditions: dose 1.72-6.88 µM
Pseudomonas aeruginosa [32] = experiment: Antibiofilm activity against Pseudomonas aeruginosa PAO1 assessed as decrease in pyocyanin level by absorbance based assay; type: functional, organism-based; conditions: dose 1.72-6.88 µM
Pseudomonas aeruginosa [33] = experiment: Antibiofilm activity against Pseudomonas aeruginosa PAO1 assessed as decrease in rhamnolipid level at 3.44 uM by absorbance based assay relative to control; type: functional; design: scale not given: the % may be the effect or the level left
Pseudomonas aeruginosa [34] = experiment: Antibiofilm activity against Pseudomonas aeruginosa PAO1 assessed as decrease in pyocyanin level at 3.44 uM by absorbance based assay relative to control; type: functional; design: scale not given: the % may be the effect or the level left
Pseudomonas aeruginosa [35] = experiment: Antibiofilm activity against Pseudomonas aeruginosa PAO1 assessed as reduction in swimming motility at 3.44 uM incubated for 16 hrs relative to control; type: functional; design: scale not given: the % may be the effect or the level left
Pseudomonas aeruginosa [36] = experiment: Antibiofilm activity against Pseudomonas aeruginosa PAO1 assessed as reduction in swarming motility at 3.44 uM incubated for 16 hrs relative to control; type: functional; design: scale not given: the % may be the effect or the level left
Pseudomonas aeruginosa [37] = experiment: Antibiofilm activity against Pseudomonas aeruginosa PAO1 assessed as reduction in twitching motility at 3.44 uM incubated for 16 hrs relative to control; type: functional; design: scale not given: the % may be the effect or the level left
HEK293 [38] = experiment: Cytotoxicity against HEK293 cells upto 100 uM incubated for 48 hrs by MTT assay; type: toxicity, cell-based; conditions: human, hek293, 48 h
A549 = experiment: Cytotoxicity against human A549 cells upto 100 uM incubated for 16 hrs by MTT assay; type: toxicity, cell-based; conditions: a549, 16 h
Pseudomonas aeruginosa [39] = experiment: Antibacterial activity against Pseudomonas aeruginosa PAO1 assessed as decrease in bacterial load at MIC measured for 12 hrs by absorbance based assay; type: functional, organism-based
[40] = Toxicity in Caenorhabditis elegans infected with Pseudomonas aeruginosa PAO1 assessed as survival at MIC measured after 48 hrs by bright field microscopy relative to control; conditions: read-out: Activity

| SMILES | Activity (Pseudomonas aeruginosa [1]) | MIC (Pseudomonas aeruginosa [2]) | MIC (Pseudomonas aeruginosa [3]) | MIC (Pseudomonas aeruginosa [4]) | MIC (Pseudomonas aeruginosa [5]) | MIC (Pseudomonas aeruginosa [6]) | MIC (Pseudomonas aeruginosa [7]) | MIC (Escherichia coli) | MIC (Klebsiella pneumoniae) | MIC (Staphylococcus aureus [8]) | MIC (Staphylococcus aureus [9]) | MIC (Pseudomonas aeruginosa [11]) | Activity (Pseudomonas aeruginosa [12]) | Activity (Pseudomonas aeruginosa [13]) | Activity (Pseudomonas aeruginosa [17]) | Activity (Pseudomonas aeruginosa [18]) | Activity (Pseudomonas aeruginosa [19]) | Activity [21] | further results |
| --- | --- | --- | --- | --- | --- | --- | --- | --- | --- | --- | --- | --- | --- | --- | --- | --- | --- | --- | --- |
| Cc1cc(=O)c(O)c(CNC(=O)CCC(N)(CCC(=O)NCc2c(O)c(=O)cc(C)n2C)CCC(=O)NCc2c(O)c(=O)cc(C)n2C)n1C | 99.8% | > 200 µM | > 200 µM | > 200 µM | > 200 µM | > 200 µM | > 200 µM | > 200 µM | > 200 µM | > 200 µM | > 200 µM | > 200 µM | 346.5% | 315.1% |  |  |  |  | inhibition (Pseudomonas aeruginosa [10]): inactive |
| O=C(CCC(=O)N1CCN(c2cc3c(cc2F)c(=O)c(C(=O)O)cn3C2CC2)CC1)NCc1ccccc1 | 102.4% | > 200 µM | > 200 µM | > 200 µM | > 200 µM | > 200 µM | > 200 µM | 15.4 µM (≈ 8 µg/mL) | > 200 µM | 30.7 µM (≈ 16 µg/mL) | > 200 µM | > 200 µM | 97.3% | 218.8% |  |  |  |  | Activity (Pseudomonas aeruginosa [14]): inactive; Activity (Pseudomonas aeruginosa [15]): inactive; inhibition (Pseudomonas aeruginosa [16]): inactive |
| O=C(O)c1cn(C2CC2)c2cc(N3CCNCC3)c(F)cc2c1=O [CIPROFLOXACIN] |  |  |  |  |  |  |  |  |  |  |  |  |  | 109.5% | 23.6% | inactive | 109.5% | Non-Toxic | Activity (HEK293 [20]): 40% |
| Cc1cc(=O)c(O)c(CNC(=O)CCC(=O)N2CCN(c3cc4c(cc3F)c(=O)c(C(=O)O)cn4C3CC3)CC2)n1C | 21.7% | 0.86 µM (≈ 0.5 µg/mL) | 0.43 µM (≈ 0.25 µg/mL) | 1.72 µM (≈ 1 µg/mL) | 0.86 µM (≈ 0.5 µg/mL) | 1.72 µM (≈ 1 µg/mL) | 3.44 µM (≈ 2 µg/mL) | 0.03 µM (≈ 0.0174 µg/mL) | 1.72 µM (≈ 1 µg/mL) | 3.44 µM (≈ 2 µg/mL) | > 200 µM | 6.88 µM (≈ 4 µg/mL) | 111.5% | 39% | 74.2% | Active | 39% | Non-Toxic | FC (Pseudomonas aeruginosa [22]): 2; Activity (Pseudomonas aeruginosa [23]): Active; Activity (Pseudomonas aeruginosa [24]): Active; Activity (Pseudomonas aeruginosa [25]): Active; Activity (Pseudomonas aeruginosa [26]): 111.5%; Activity (Pseudomonas aeruginosa [27]): 21.7%; Activity (Pseudomonas aeruginosa [28]): 211%; Activity (Pseudomonas aeruginosa [29]): 223.4%; Activity (Pseudomonas aeruginosa [30]): 205.2%; Activity (Pseudomonas aeruginosa [31]): Dose-Dependent Effect; Activity (Pseudomonas aeruginosa [32]): Dose-Dependent Effect; Activity (Pseudomonas aeruginosa [33]): 20%; Activity (Pseudomonas aeruginosa [34]): 40%; Activity (Pseudomonas aeruginosa [35]): 63%; Activity (Pseudomonas aeruginosa [36]): 30%; Activity (Pseudomonas aeruginosa [37]): 63%; Activity (HEK293 [38]): Non-Toxic; Activity (A549): Non-Toxic; Activity (Pseudomonas aeruginosa [39]): Active; survival at 48 h [40]: 50% |
